Experimental data taken from patent publication US4351840A, “Antibacterial esters of resorcinol with ampicillin and penicillanic acid 1,1-dioxide derivatives” (priority 1981, dated 1982).
Like-named read-outs stand apart in the source and are kept apart here.

Assays:
[1] = system: beta-lactamase from Escherichia coli 51A129; assay: Inhibition of ampicillin hydrolysis by cell-free beta-lactamase (microiodometric); type: biochemical; conditions: ampicillin 33 μM, pH 6.5, 37° C.
Procedure: (§1) The compounds of the present invention are thus evaluated in vitro by the ability of penicillanic acid 1,1-dioxide derivatives of the formula (IV) to inhibit the hydrolysis of beta-lactam antibiotics by beta-lactamase enzymes. The hydrolysis of ampicillin was determined by the microiodometric method of Novick [Biochem, J. 83, 236 (1962)]. Conditions for this assay are 0.5 M potassium phosphate, pH 6.5 and 37° C. Reactions were initiated by the addition of the cell-free beta-lactamase, except in the case of preincubation experiments in which the inhibitor and enzyme were incubated together in the assay mixture for 10 minutes before initiation of the reaction by addition of substrate. With the cellfree extracts of Staphylococcus aureus, Escherichia coli, Klebsiella pneumoniae and Pseudomonas aeruginosa, the substrate was ampicillin at 33 micro M (13 microg./ml). Typical specific activities of the beta-lactamase preparations were, respectively, 6,019, 88,970, 260 and 76 micromol/hr. per mg. of protein.
(§2) Cell-free extracts were prepared by sonic treatment (using three 30-s bursts at 4° C. except for S. aureus, which was broken with a French press) of cultures grown in brain heart infusion on a rotary shaker incubator. For the S. aureus, P. aeruginose, and E. cloacae strains, de novo synthesis of beta-lactamase was induced by growing a log-phase culture in the presence of a sublethal concentration of penicillin G at 100, 1,000, and 300 microg./ml, respectively, for 2.5 hr.

[2] = system: beta-lactamase from Klebsiella pneumoniae 53A129; assay: as above; type: biochemical; conditions: ampicillin 33 μM, pH 6.5, 37° C.
Procedure: as §1, §2

[3] = molecular target: T1, beta-lactamase from Staphylococcus aureus 01A400 (Staphylococcus aureus, UniProt P00807); assay: as above; type: biochemical
T1 construct: Cell-free extracts were prepared by sonic treatment; endogenous in cells; host or cells: Staphylococcus aureus strain 01A400, induced with penicillin G; cell-free extract by French press
Procedure: as §1, §2

[4] = molecular target: beta-lactamase from Pseudomonas aeruginosa 52A104 (Pseudomonas aeruginosa, UniProt P24735); assay: as above; type: biochemical; conditions: ampicillin 33 μM, pH 6.5, 37° C., read-out: % Inhibition Beta-Lactam Hydrolysis
Procedure: as §1, §2

[5] = system: Citrobacter diversus 70C031; assay: Minimum inhibitory concentration on BHI agar; type: cell-based; conditions: 18 hrs., 37° C., inhibitor alone or 1:1 mixture with ampicillin
Procedure: (§3) The procedure which follows is the one recommended by the International Collaborative Study on Antibiotic Sensitivity Testing [Ericcson and Sherris, Acta. Pathologica et Microbiologia Scandinav, Supp. 217, Sections A and B: 64-68 (1971)], and employs brain heart infusion (BHI) agar and the inocula replicating device. Overnight growth tubes are diluted 100 fold for use as the standard inoculum (20,000-10,000 cells in approximately 0.002 ml are placed on the agar surface; 20 ml of BHI agar/dish). Twelve 2 fold dilutions of the test compound are employed, with initial concentration of the test drug being 200 mcg/ml. Single colonies are disregarded when reading tubes after 18 hrs. at 37° C.
(§4) These MIC's are then compared with the MIC values obtained with a combination of ampicillin and the beta-lactamase inhibitor. […] The MIC values of combinations are measured using the method described by Barry and Sabath in "Manual of Clinical Microbiology", edited by Lenette, Spaulding and Truant, 2nd Edition, 1974, American Society for Microbiology.

[6] = system: Enterobacter cloacae 67B009; assay: Minimum inhibitory concentration on BHI agar; type: cell-based; conditions: 18 hrs., 37° C., inhibitor alone or 1:1 mixture with ampicillin
Procedure: as §3, §4

Escherichia coli 51A266 = assay: Minimum inhibitory concentration on BHI agar; type: cell-based; conditions: 18 hrs., 37° C., inhibitor alone or 1:1 mixture with ampicillin
Procedure: as §3, §4

[7] = system: Klebsiella pneumoniae 53A079; assay: Minimum inhibitory concentration on BHI agar; type: cell-based; conditions: 18 hrs., 37° C., inhibitor alone or 1:1 mixture with ampicillin
Procedure: as §3, §4

Proteus morgani 57G001 = assay: Minimum inhibitory concentration on BHI agar; type: cell-based; conditions: 18 hrs., 37° C., inhibitor alone or 1:1 mixture with ampicillin
Procedure: as §3, §4

[8] = system: Pseudomonas aeruginosa 52A104; assay: Minimum inhibitory concentration on BHI agar; type: cell-based; conditions: 18 hrs., 37° C., inhibitor alone or 1:1 mixture with ampicillin
Procedure: as §3, §4

[9] = system: Serratia marcescens 63A095; assay: Minimum inhibitory concentration on BHI agar; type: cell-based; conditions: 18 hrs., 37° C., inhibitor alone or 1:1 mixture with ampicillin
Procedure: as §3, §4

[10] = system: Staphylococcus aureus 01A005; assay: Minimum inhibitory concentration on BHI agar; type: cell-based; conditions: 18 hrs., 37° C., inhibitor alone or 1:1 mixture with ampicillin
Procedure: as §3, §4

[11] = system: Staphylococcus aureus 01A400; assay: Minimum inhibitory concentration on BHI agar; type: cell-based; conditions: 18 hrs., 37° C., inhibitor alone or 1:1 mixture with ampicillin
Procedure: as §3, §4

[12] = pH 6.5, read-out: % Inhibition Beta-Lactam Hydrolysis

T1 sequence (P00807 25-281): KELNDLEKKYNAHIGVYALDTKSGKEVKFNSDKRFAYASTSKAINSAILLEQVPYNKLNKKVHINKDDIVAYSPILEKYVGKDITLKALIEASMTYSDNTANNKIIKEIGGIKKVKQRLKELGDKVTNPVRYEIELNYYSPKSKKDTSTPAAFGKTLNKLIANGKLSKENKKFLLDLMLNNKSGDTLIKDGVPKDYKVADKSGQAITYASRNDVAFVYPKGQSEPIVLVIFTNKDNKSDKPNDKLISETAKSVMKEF
beta-lactamase from Pseudomonas aeruginosa 52A104, sequence (P24735 27-397): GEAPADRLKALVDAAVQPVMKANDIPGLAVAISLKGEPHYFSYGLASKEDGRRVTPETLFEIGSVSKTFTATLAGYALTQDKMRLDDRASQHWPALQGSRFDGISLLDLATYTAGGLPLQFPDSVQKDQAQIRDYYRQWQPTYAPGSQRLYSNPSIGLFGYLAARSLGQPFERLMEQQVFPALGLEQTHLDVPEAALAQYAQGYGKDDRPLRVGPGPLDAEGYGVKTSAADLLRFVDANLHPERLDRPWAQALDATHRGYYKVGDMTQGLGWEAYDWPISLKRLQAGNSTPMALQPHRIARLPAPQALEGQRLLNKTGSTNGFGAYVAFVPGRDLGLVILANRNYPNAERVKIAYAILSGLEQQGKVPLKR

CC1(C)[C@H](C(=O)O)N2C(=O)[C@@H](CO)[C@H]2S1(=O)=O [A, 6-beta-(Hydroxymethyl)pencillanic acid 1,1-dioxide]
% Inhibition Beta-Lactam Hydrolysis ([1]; inhibitor 0.67 μM): 92.1%
% Inhibition Beta-Lactam Hydrolysis ([1]; inhibitor 1.0 μM): 95.7%
% Inhibition Beta-Lactam Hydrolysis ([1]; inhibitor 16.5 μM): 100%
% Inhibition Beta-Lactam Hydrolysis ([1]; inhibitor 66 μM): 100%
% Inhibition Beta-Lactam Hydrolysis ([2]; inhibitor 1.0 μM): 81.2%
% Inhibition Beta-Lactam Hydrolysis ([2]; inhibitor 16.5 μM): 100%
% Inhibition Beta-Lactam Hydrolysis ([2]; inhibitor 66 μM): 100%
inhibition at 1 µM ([3]; inhibitor 1.0 μM, ampicillin 33 μM, pH 6.5, 37° C., read-out: % Inhibition Beta-Lactam Hydrolysis): 39.3%
inhibition at 16.5 µM ([3]; inhibitor 16.5 μM, ampicillin 33 μM, pH 6.5, 37° C., read-out: % Inhibition Beta-Lactam Hydrolysis): 78.8%
inhibition at 66 µM ([3]; inhibitor 66 μM, ampicillin 33 μM, pH 6.5, 37° C., read-out: % Inhibition Beta-Lactam Hydrolysis): 98.3%

CC1(C)[C@H](C(=O)O)N2C(=O)C[C@H]2S1(=O)=O [B, Penicillanic acid 1,1-dioxide]
% Inhibition Beta-Lactam Hydrolysis ([1]; inhibitor 1.0 μM): 97.0%
% Inhibition Beta-Lactam Hydrolysis ([1]; inhibitor 16.5 μM): 100%
% Inhibition Beta-Lactam Hydrolysis ([1]; inhibitor 66 μM): 100%
% Inhibition Beta-Lactam Hydrolysis ([2]; inhibitor 16.5 μM): 100%
% Inhibition Beta-Lactam Hydrolysis ([2]; inhibitor 66 μM): 100%
inhibition at 16.5 µM ([4]; inhibitor 16.5 μM): 5%
inhibition at 66 µM ([4]; inhibitor 66 μM): 27.5%
inhibition at 1 µM [3, 12]: 0%
inhibition at 16.5 µM [3, 12]: 95%
inhibition at 66 µM [3, 12]: 100%
MIC [5]: 200 µg/mL
MIC [6]: 100 µg/mL
MIC (Escherichia coli 51A266): 25 µg/mL
MIC [7]: 50 µg/mL
MIC (Proteus morgani 57G001): 200 µg/mL
MIC [8]: > 200 µg/mL
MIC [9]: 200 µg/mL
MIC [10]: 100 µg/mL
MIC [11]: 200 µg/mL
